Experimental data from patent US12359176B2, “Engineered cells for production of indole-derivatives” (priority 2019, dated 2025).

Tests used:
Format in all cases: cell-based
[1] = system: E. coli YhjV knockout (HMP3406_YhjV KO); assay: Growth test of yhjV knockout strain in tryptophan; conditions: 1 mM tryptophan, M9 with 0.2% glucose, 30° C., 48 h
Experimental: This Example describes testing the influence of YhjV on the uptake of amino acids. The growth test was performed using M9 medium supplemented with 0.2% glucose and 1 mM tryptophan, as well as appropriate antibiotics (100 mg/L ampicillin or 50 mg/L kanamycin). The growth curves were monitored with Growth Profiler (Enzyscreen, Heemstede, Netherland) at 30° C. and 250 RPM for 48 h.
We first tested how YhjV transporter affects the growth of E. coli tryptophan. We followed the growth curves of E. coli wild type BW25113 (HMP0_wt), YhjV knockout (HMP3406_YhjV KO) and YhjV overexpression (HMP3405_YhjV O. E., made by transforming pHM635 into HMP0) in M9 medium containing 0.2% glucose supplemented with 1 mM tryptophan.

[2] = system: E. coli Keio strains (single gene deleted strains); assay: Growth Profiler growth test of transporter knockout (Keio) strains in 4 g/L melatonin; conditions: 4% ethanol, M9+0.2% glucose, vs BW25113 control strain
Experimental: (§1) The E. coli Keio strains (single gene deleted strains) were inoculated into 400 μl of M9+0.2% glucose media supplemented with kanamycin (50 μg/ml) in 96 deep well-plate picking the single colonies in LB-agar plates. Then, the plate was incubated at 30° C. with 300 rpm overnight (incubated for 18-24 h). The wild type strain E. coli BW25113 was used as a control. The following day, the saturated pre-cultures were diluted 100 fold into 300 μl of M9+0.2% glucose media (and antibiotics as required) supplemented with 4.4% of ethanol or 4.4% of ethanol and 4.4 g/L of melatonin so that the resulting final concentration would be 4% of ethanol and 4 g/L of melatonin in 96 well MTP plate. In case of the RBS library of yhjV, screening was performed at 5 g/L of melatonin instead of 4 g/L. Then, the culture plates were incubated in Growth Profiler (Enzyscreen, Heemstede, Netherland) at 30° C. and 250 RPM for 48 h with constant monitoring of the growth by taking picture in every 20 minutes interval. Using the GP software (GP960Viewer version 1.0.0.4, Enzyscreen, Heemstede, Netherland), the pictures data was converted into digital OD600 nm values and the growth curves were compared.
To identify any melatonin-specific native transporters in E. coli, an E. coli knockout library of 430 strains was screened, testing cell growth in the presence of 4 g/L (or 5 g/L) melatonin using the Growth Profiler. In such a screen, improved growth parameters (especially higher growth rate and/or lower lag time) compared to wild-type strain can be expected in case an importer is knocked-out, whereas decreased growth parameters can be expected in case an exporter is knocked-out (FIG. 3).
The growth curves of the five selected transporter candidate deletion strains (target candidate knocked-out Keio strains) were accessed after running growth profiler experiments as mentioned above.

[3] = system: E. coli; assay: Growth of E. coli in the presence of melatonin
Experimental: FIG. 2. High-concentration of melatonin decreased cell growth of E. coli. Melatonin stock-solution was made by dissolving melatonin into 70% ethanol (ETOH). The growth medium was M9 supplemented with 0.2% glucose and 2 to 7 g/L melatonin. […] The ordinate scale reflects optical density.
as §1
In order to elucidate whether melatonin production at high titers is toxic to E. coli, we tested the growth of E. coli strain in the presence of different concentrations of melatonin. Melatonin was externally added into M9 medium supplemented with 0.2% glucose and the growth curves were monitored. […] Compared to the control, the biomass yield decreased ˜30% at 2 g/L melatonin, and further decreased about 30% at 7 g/l melatonin.

Row | Compound | growth of YhjV knockout compared to the wild type [1] | growth of acrB deletion strain [2] | growth of argO deletion strain [2] | growth of garP deletion strain [2] | growth of lysP deletion strain [2] | growth of yhjV deletion strain [2] | biomass yield decrease compared to the control ([3]; 2 g/L melatonin, M9 medium with 0.2% glucose, control contains 4% ETOH) | further biomass yield decrease ([3]; 7 g/l melatonin, M9 medium with 0.2% glucose, control contains 4% ETOH) | effect on E. coli growth ([3]; high concentrations of melatonin (2 to 7 g/L), M9 with 0.2% glucose)
1 | N[C@@H](Cc1c[nH]c2ccccc12)C(=O)O [tryptophan, L-tryptophan] | much lower biomass yield |  |  |  |  |  |  |  | 
2 | COc1ccc2[nH]cc(CCNC(C)=O)c2c1 [melatonin] |  | no growth at all | reduced growth rates | longer lag time and reduced growth rate | reduced growth rates | longer lag time and reduced growth rate | about 30% | about 30% | inhibited E. coli growth
